Test results published in ChEMBL document CHEMBL4364295, “Discovery of a First-in-Class Receptor Interacting Protein 2 (RIP2) Kinase Specific Clinical Candidate, 2-((4-(Benzo[d]thiazol-5-ylamino)-6-(tert-butylsulfonyl)quinazolin-7-yl)oxy)ethyl Dihydrogen Phosphate, for the Treatment of Inflammatory Diseases” (J Med Chem, 2019).
pIC50: −log10 of the molar value.

Key:
[1] = AUC in Sprague-Dawley rat assessed as 2-((4-(Benzo[d]thiazol-5-ylamino)-6-(tert-butylsulfonyl)quinazolin-7-yl)oxy)ethanol level at 2 mg/kg, po by LC/MS/MS analysis; type: ADME, organism-based; settings: in vivo
[2] = AUC in Beagle dog assessed as 2-((4-(Benzo[d]thiazol-5-ylamino)-6-(tert-butylsulfonyl)quinazolin-7-yl)oxy)ethanol level at 2 mg/kg, po by LC/MS/MS analysis; type: ADME, organism-based, Canis lupus familiaris; settings: in vivo
[3] = Volume of distribution at steady state in Beagle dog assessed as 2-((4-(Benzo[d]thiazol-5-ylamino)-6-(tert-butylsulfonyl)quinazolin-7-yl)oxy)ethanol level at 2 mg/kg, po or 0.9 mg/kg, iv by LC/MS/MS analysis; type: ADME, organism-based, Canis lupus familiaris; settings: in vivo
[4] = Oral bioavailability in Beagle dog assessed as 2-((4-(Benzo[d]thiazol-5-ylamino)-6-(tert-butylsulfonyl)quinazolin-7-yl)oxy)ethanol level at 2 mg/kg by LC/MS/MS analysis; type: ADME, organism-based, Canis lupus familiaris; settings: in vivo
[5] = Cmax in Gottingen minipig assessed as 2-((4-(Benzo[d]thiazol-5-ylamino)-6-(tert-butylsulfonyl)quinazolin-7-yl)oxy)ethanol level at 1 mg/kg, po by LC/MS/MS analysis; type: ADME, organism-based, Sus scrofa; parameters: dose 1 mg/kg, route oral; settings: pig, in vivo
[6] = Volume of distribution at steady state in Gottingen minipig assessed as 2-((4-(Benzo[d]thiazol-5-ylamino)-6-(tert-butylsulfonyl)quinazolin-7-yl)oxy)ethanol level at 2 mg/kg, po or 1 mg/kg, iv by LC/MS/MS analysis; type: ADME, organism-based, Sus scrofa; settings: pig, in vivo
[7] = Half life in rat intestinal S9 fraction; type: ADME, subcellular, Intestine
[8] = Half life in human blood; type: ADME, tissue-based
[9] = Drug uptake in Beagle dog systemic circulation at 2 mg/kg, po or 0.9 mg/kg, iv by LC/MS/MS analysis; type: ADME, organism-based, Canis lupus familiaris; settings: in vivo
[10] = Drug uptake in Gottingen minipig systemic circulation at 2 mg/kg, po or 1 mg/kg, iv by LC/MS/MS analysis; type: ADME, organism-based, Sus scrofa; settings: pig, in vivo
[11] = Ratio of brain to blood concentration in Han Wistar rat assessed as 2-((4-(Benzo[d]thiazol-5-ylamino)-6-(tert-butylsulfonyl)quinazolin-7-yl)oxy)ethanol level at 2 mg/kg, iv administered as infusion for 4 hrs; type: ADME, organism-based
[12] = Drug uptake in Han Wistar rat brain at 2 mg/kg, iv administered as infusion for 4 hrs; type: ADME, organism-based; settings: in vivo
[13] = Drug uptake in Han Wistar rat eye at 2 mg/kg, iv administered as infusion for 4 hrs; type: ADME, organism-based; settings: in vivo
[14] = Prodrug conversion in rat hepatocytes assessed as 2-(4-(benzo[d]thiazol-5-ylamino)-6-(tert-butylsulfonyl)-1,2,3,4-tetrahydroquinazolin-7-yloxy)ethanol formation at 20 uM measured after 4 hrs; type: ADME, cell-based, Hepatocyte
[15] = Prodrug conversion in rat hepatocytes assessed as oxidation at 20 uM measured after 4 hrs; type: ADME, cell-based, Hepatocyte
[16] = Prodrug conversion in rat hepatocytes assessed as dephosphorylation at 20 uM measured after 4 hrs; type: ADME, cell-based, Hepatocyte
[17] = Prodrug conversion in minipig hepatocytes assessed as 2-(4-(benzo[d]thiazol-5-ylamino)-6-(tert-butylsulfonyl)-1,2,3,4-tetrahydroquinazolin-7-yloxy)ethanol formation at 20 uM measured after 4 hrs; type: ADME, cell-based, Sus scrofa, Hepatocyte; settings: pig
[18] = Prodrug conversion in minipig hepatocytes assessed as 2-((4-(Benzo[d]thiazol-5-ylamino)-6-(tert-butylsulfonyl)quinazolin-7-yl)oxy)ethanol formation at 20 uM measured after 4 hrs; type: ADME, cell-based, Sus scrofa, Hepatocyte; settings: pig
[19] = Prodrug conversion in minipig hepatocytes assessed as 2-(4-(benzo[d]thiazol-5-ylamino)-7-(2-hydroxyethoxy)quinazolin-6-ylsulfonyl)-2-methylpropan-1-ol formation at 20 uM measured after 4 hrs; type: ADME, cell-based, Sus scrofa, Hepatocyte; settings: pig
[20] = Prodrug conversion in minipig hepatocytes assessed as hydrogenation at 20 uM measured after 4 hrs; type: ADME, cell-based, Sus scrofa, Hepatocyte; settings: pig
[21] = Prodrug conversion in human hepatocytes assessed as oxidation at 20 uM measured after 4 hrs; type: ADME, cell-based, Hepatocyte
[22] = Prodrug conversion in human hepatocytes assessed as hydrogenation at 20 uM measured after 4 hrs; type: ADME, cell-based, Hepatocyte
[23] = Prodrug conversion in Sprague-Dawley rat intestine assessed as 2-((4-(Benzo[d]thiazol-5-ylamino)-6-(tert-butylsulfonyl)quinazolin-7-yl)oxy)ethanol formation at 2 mg/kg, po or 0.5 mg/kg, iv measured at 15 to 120 mins post dose; type: ADME, organism-based; settings: in vivo
[24] = Toxicity in Sprague-Dawley rat during 6 week study; settings: in vivo, 1008 h
[25] = biological target: Serine/threonine-protein kinase 10 (Homo sapiens) (UniProt O94804); assay: Inhibition of human STK10 at 1 uM using RLGRDKYKTLRQIRQ as substrate in presence of [gamma-33P]ATP relative to control
Sequence of Serine/threonine-protein kinase 10 (Homo sapiens) (O94804 whole entry, looked up): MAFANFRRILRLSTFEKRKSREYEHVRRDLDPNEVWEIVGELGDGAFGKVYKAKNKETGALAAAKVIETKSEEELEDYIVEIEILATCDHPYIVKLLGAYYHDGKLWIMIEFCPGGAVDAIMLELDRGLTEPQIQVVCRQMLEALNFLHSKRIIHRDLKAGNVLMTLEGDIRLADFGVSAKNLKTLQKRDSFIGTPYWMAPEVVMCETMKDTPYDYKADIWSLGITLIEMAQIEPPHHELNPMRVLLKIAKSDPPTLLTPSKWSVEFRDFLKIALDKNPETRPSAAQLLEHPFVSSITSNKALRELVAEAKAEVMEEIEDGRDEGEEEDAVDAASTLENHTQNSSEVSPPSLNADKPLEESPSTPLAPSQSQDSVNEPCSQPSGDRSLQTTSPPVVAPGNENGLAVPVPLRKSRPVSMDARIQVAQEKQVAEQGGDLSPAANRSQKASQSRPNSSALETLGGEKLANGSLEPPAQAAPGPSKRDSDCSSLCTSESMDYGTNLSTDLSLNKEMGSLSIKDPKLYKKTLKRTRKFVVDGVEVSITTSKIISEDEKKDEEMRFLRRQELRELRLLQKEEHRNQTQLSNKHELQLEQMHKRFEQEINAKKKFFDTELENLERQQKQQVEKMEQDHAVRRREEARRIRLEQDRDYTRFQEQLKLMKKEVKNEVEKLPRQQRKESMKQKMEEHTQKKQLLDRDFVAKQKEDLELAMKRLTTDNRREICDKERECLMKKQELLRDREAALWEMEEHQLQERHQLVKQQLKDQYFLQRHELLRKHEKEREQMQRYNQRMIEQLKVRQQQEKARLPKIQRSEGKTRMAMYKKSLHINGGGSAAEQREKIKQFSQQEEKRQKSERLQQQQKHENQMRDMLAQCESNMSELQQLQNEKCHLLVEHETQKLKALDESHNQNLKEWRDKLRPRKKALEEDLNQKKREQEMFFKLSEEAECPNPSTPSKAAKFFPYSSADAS

[26] = biological target: Vascular endothelial growth factor receptor 2 (Homo sapiens) (UniProt P35968); assay: Inhibition of human VEGFR2 at 1 uM using poly[Glu:Tyr] (4:1) as substrate in presence of [gamma-33P]ATP relative to control
Sequence of Vascular endothelial growth factor receptor 2 (Homo sapiens) (P35968 whole entry): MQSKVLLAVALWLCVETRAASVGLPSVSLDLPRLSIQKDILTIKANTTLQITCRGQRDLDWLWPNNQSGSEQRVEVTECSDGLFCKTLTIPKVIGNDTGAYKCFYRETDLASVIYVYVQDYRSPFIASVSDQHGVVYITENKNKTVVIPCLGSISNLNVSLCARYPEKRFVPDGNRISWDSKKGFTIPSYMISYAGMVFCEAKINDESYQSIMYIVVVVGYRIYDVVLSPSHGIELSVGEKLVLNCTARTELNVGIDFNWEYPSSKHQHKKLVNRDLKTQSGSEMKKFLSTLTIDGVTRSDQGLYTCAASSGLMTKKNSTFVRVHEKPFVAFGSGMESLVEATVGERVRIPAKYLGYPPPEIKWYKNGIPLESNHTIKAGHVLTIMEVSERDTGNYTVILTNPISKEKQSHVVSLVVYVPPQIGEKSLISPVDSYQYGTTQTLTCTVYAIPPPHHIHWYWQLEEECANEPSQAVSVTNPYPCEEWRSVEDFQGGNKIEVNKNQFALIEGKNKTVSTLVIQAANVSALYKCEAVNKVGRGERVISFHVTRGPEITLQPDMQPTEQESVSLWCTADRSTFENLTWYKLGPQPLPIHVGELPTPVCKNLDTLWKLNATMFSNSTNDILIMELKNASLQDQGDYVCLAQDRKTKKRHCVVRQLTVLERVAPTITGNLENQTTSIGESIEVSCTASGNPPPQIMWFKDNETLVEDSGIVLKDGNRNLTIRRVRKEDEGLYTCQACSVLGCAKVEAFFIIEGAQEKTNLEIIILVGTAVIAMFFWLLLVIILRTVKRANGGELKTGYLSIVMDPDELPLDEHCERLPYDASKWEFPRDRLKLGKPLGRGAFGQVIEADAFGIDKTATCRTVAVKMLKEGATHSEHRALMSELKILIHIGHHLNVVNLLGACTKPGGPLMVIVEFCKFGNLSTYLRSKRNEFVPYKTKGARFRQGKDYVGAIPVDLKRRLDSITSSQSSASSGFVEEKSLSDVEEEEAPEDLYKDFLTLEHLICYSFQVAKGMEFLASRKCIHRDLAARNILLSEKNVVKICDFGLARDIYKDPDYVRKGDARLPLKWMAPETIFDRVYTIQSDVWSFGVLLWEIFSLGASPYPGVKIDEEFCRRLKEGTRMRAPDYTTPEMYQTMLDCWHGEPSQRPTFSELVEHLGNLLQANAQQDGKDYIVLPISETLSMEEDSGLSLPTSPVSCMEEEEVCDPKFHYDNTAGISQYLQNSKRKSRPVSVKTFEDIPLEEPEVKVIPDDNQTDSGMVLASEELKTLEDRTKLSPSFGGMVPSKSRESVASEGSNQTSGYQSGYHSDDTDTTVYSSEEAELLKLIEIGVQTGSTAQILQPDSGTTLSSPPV

[27] = Clearance in Sprague-Dawley rat at 2 mg/kg, po or 0.5 mg/kg, iv by LC/MS/MS analysis; type: ADME, organism-based; settings: in vivo
[28] = Terminal half life in Sprague-Dawley rat at 2 mg/kg, po or 0.5 mg/kg, iv by LC/MS/MS analysis; type: ADME, organism-based; settings: in vivo, read-out: beta t1/2 (converted)
[29] = AUC in Beagle dog at 2 mg/kg, po by LC/MS/MS analysis; type: ADME, organism-based, Canis lupus familiaris; settings: in vivo
[30] = Terminal half life in Beagle dog at 2 mg/kg, po or 1.1 mg/kg, iv by LC/MS/MS analysis; type: ADME, organism-based, Canis lupus familiaris; settings: in vivo, read-out: beta t1/2 (converted)
[31] = AUC in Gottingen minipig at 1 mg/kg, po by LC/MS/MS analysis; type: ADME, organism-based, Sus scrofa; settings: pig, in vivo
[32] = Terminal half life in Gottingen minipig at 1 mg/kg, po or 0.4 mg/kg, iv by LC/MS/MS analysis; type: ADME, organism-based, Sus scrofa; settings: pig, in vivo, read-out: beta t1/2 (converted)
[33] = Cmax in Sprague-Dawley rat at 60 mg/kg, po using crystalline sample during 7 day dose ranging study by LC/MS/MS analysis; type: ADME, organism-based; parameters: dose 60 mg/kg, route oral; settings: in vivo
[34] = biological target: Receptor-interacting serine/threonine-protein kinase 2 (Homo sapiens, UniProt O43353); assay: Inhibition of fluorescent-labelled ligand binding to human RIP2K preincubated for 10 mins followed by fluorescent-labelled ligand addition and measured after 10 mins by fluorescence polarization assay
Sequence of Receptor-interacting serine/threonine-protein kinase 2 (O43353 whole entry, the tested form may be a part): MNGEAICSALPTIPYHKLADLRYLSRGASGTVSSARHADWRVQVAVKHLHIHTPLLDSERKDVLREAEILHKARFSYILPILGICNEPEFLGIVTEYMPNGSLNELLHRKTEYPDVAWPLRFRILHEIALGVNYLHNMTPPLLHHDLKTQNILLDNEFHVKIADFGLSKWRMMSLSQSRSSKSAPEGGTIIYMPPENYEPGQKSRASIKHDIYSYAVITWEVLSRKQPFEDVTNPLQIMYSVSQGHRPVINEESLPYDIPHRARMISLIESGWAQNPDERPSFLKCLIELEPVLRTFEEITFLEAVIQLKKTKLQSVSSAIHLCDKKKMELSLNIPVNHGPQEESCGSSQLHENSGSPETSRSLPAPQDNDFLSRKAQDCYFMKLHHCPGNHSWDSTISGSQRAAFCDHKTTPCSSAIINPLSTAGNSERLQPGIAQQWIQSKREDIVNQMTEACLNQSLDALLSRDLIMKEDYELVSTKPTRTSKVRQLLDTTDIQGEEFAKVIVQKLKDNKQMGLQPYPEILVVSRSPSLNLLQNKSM

[35] = biological target: T1, Nucleotide-binding oligomerization domain-containing protein 2 (Homo sapiens, UniProt Q9HC29); assay: Inhibition of human NOD2 expressed in HEK293 cells assessed as reduction in MDP-induced IL8 production measured after 22 hrs by HTRF fluorescence assay; type: cell-based
T1 sequence (Q9HC29 whole entry, the tested form may be a part): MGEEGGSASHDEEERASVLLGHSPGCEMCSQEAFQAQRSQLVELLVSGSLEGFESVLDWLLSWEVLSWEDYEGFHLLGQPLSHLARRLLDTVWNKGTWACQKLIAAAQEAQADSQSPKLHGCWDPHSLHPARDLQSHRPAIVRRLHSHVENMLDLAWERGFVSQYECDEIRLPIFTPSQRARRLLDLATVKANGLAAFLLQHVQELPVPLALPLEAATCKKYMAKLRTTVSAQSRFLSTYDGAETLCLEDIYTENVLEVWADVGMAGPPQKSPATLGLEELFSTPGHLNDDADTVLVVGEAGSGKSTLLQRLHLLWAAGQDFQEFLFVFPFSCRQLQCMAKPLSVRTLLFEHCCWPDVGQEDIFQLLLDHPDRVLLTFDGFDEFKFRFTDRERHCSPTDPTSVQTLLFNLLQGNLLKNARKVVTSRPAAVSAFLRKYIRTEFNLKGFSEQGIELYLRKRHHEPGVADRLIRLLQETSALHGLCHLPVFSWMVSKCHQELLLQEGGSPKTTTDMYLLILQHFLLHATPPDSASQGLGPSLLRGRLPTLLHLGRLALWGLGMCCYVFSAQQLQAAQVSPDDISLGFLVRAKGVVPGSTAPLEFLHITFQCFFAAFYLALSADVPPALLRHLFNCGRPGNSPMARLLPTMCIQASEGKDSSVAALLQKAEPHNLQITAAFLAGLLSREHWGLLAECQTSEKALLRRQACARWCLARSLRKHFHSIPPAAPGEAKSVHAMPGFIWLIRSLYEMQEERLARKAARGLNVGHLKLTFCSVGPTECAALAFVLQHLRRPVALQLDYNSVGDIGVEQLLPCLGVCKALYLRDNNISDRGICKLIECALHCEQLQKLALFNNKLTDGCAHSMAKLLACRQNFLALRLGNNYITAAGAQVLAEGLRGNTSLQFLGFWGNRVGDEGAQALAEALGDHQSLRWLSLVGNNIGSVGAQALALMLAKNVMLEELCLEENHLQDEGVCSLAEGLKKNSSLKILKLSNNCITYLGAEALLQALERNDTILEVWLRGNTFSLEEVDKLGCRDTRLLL

[36] = biological target: T1, Nucleotide-binding oligomerization domain-containing protein 2; assay: Inhibition of NOD2 in human monocytes assessed as reduction in MDP-induced TNFalpha production preincubated for 30 mins followed by MDP-stimulation and measured after 6 hrs by immunoassay; type: cell-based
[37] = Inhibition of TNFR in human monocytes assessed as reduction in TNFalpha-induced IL8 production; type: cell-based
[38] = biological target: Toll-like receptor 4 (Homo sapiens, UniProt O00206); assay: Inhibition of TLR4 in human monocytes assessed as reduction in LPS-induced TNFalpha production; type: cell-based
Sequence of Toll-like receptor 4 (O00206 whole entry): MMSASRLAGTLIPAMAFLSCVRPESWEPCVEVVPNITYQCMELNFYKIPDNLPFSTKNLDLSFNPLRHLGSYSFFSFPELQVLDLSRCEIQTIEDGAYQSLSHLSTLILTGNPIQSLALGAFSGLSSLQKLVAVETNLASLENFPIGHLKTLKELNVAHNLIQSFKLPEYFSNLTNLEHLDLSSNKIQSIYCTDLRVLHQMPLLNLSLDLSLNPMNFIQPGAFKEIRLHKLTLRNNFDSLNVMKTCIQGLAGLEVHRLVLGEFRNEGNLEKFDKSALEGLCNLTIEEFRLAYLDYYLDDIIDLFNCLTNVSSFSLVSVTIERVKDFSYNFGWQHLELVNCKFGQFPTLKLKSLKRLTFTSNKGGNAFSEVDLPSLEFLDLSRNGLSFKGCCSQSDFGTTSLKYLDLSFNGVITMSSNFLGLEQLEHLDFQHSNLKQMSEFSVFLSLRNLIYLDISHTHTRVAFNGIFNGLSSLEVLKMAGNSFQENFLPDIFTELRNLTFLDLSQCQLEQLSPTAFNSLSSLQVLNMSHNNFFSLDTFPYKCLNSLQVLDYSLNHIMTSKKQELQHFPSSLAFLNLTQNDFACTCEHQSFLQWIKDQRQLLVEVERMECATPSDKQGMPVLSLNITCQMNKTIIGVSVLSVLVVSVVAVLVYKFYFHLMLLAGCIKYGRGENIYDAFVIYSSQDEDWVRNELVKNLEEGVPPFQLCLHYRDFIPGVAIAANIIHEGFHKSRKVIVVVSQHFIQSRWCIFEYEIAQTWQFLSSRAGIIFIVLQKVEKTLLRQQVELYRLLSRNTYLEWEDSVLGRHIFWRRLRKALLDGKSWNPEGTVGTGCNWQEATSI

[39] = Clearance in minipig hepatocytes; type: ADME, cell-based, Sus scrofa, Hepatocyte; settings: pig

**Q.** With `CC(C)(C)S(=O)(=O)c1cc2c(Nc3ccc4scnc4c3)ncnc2cc1OCCOP(=O)(O)O.[CaH2]` as the compound, how does the AUC [1] read?
**A.** 560 ng·h/mL

**Q.** What about the AUC [2] of the same compound?
**A.** 4400 ng·h/mL

**Q.** And the Vdss [3]?
**A.** 2 L/kg

**Q.** What about the F [4] of the same compound?
**A.** 100%

**Q.** And the Cmax [5]?
**A.** 340 ng/mL

**Q.** What about the Vdss [6] of the same compound?
**A.** 2.1 L/kg

**Q.** What about the half-life [7] of the same compound?
**A.** 3.3 min

**Q.** What about the half-life [8] of the same compound?
**A.** 0.417 h

**Q.** And the Drug uptake [9]?
**A.** Not Active

**Q.** What about the Drug uptake [10] of the same compound?
**A.** Not Active

**Q.** And the Ratio [11]?
**A.** 0.065

**Q.** What about the Drug uptake [12] of the same compound?
**A.** Not Active

**Q.** And the Drug uptake [13]?
**A.** Not Active

**Q.** What about the Drug metabolism [14] of the same compound?
**A.** Metabolite_Detected

**Q.** What about the Drug metabolism [15] of the same compound?
**A.** Metabolite_Detected

**Q.** What about the Drug metabolism [16] of the same compound?
**A.** Metabolite_Detected

**Q.** What about the Drug metabolism [17] of the same compound?
**A.** Metabolite_Detected

**Q.** And the Drug metabolism [18]?
**A.** Metabolite_Detected

**Q.** And the Drug metabolism [19]?
**A.** Metabolite_Detected

**Q.** And the Drug metabolism [20]?
**A.** Metabolite_Detected

**Q.** What about the Drug metabolism [21] of the same compound?
**A.** Metabolite_Detected

**Q.** And the Drug metabolism [22]?
**A.** Metabolite_Detected

**Q.** And the Drug metabolism [23]?
**A.** Metabolite_Detected

**Q.** What about the Activity [24] of the same compound?
**A.** Non-Toxic

**Q.** Which inhibition [25] does the source give for `CC(C)(C)S(=O)(=O)c1cc2c(Nc3ccc4scnc4c3)ncnc2cc1OCCO` here?
**A.** 70 to 90%

**Q.** What about the inhibition [26] of the same compound?
**A.** 70 to 90%

**Q.** And the clearance [27]?
**A.** 27 mL/min/kg

**Q.** What about the half-life [28] of the same compound?
**A.** 4.4 h

**Q.** And the AUC [29]?
**A.** 1800 ng·h/mL

**Q.** And the half-life [30]?
**A.** 5.1 h

**Q.** What about the AUC [31] of the same compound?
**A.** 85 ng·h/mL

**Q.** What about the half-life [32] of the same compound?
**A.** 1.9 h

**Q.** And the Cmax [33]?
**A.** 2100 ng/mL

**Q.** And the pIC50 [34]?
**A.** 8.30

**Q.** And the pIC50 [35]?
**A.** 8.40

**Q.** And the inhibition [35]?
**A.** Dose-dependent effect

**Q.** What about the inhibition [36] of the same compound?
**A.** Dose-dependent effect

**Q.** What about the pIC50 [37] of the same compound?
**A.** < 5.00

**Q.** And the pIC50 [38]?
**A.** < 5.00

**Q.** What about the CLH [39] of the same compound?
**A.** 0.55 mL/min/g
